The data set in a line: Human HepG2 cell viability assay in 384 well format. The data set is classed as toxicity, cell-based. The arrangement: dose 125 nL, time 70.5 hour; concentration not given beside the values. As to conditions: HepG2 cells, read-out: Inhibition.

Take `Cc1nc(C)n(CC2CCCN(CCc3ccncc3)C2)n1` (centres undefined): the cytotoxicity at 70.5 h is -2.11%.
To `Cc1csc(N2CCN(Cc3ccccn3)CC2C)n1` (centres undefined) belongs -5.63%; to `Cc1cc(C)n(CC2CCCN2C(=O)c2ccc3c(c2)nnn3C)n1` (centres undefined), 1.66%.
The value for `COc1ccc(NC(C)C(=O)NCCc2cccs2)cc1F` (centres undefined) was 9.05%; that for `CSCC(CCO)NC(=O)Nc1cccc(Br)c1` (centres undefined) was -0.357%; that for `Cc1cc(C)n(CC2CCCN2C(=O)c2ccc3[nH]nnc3c2)n1` (centres undefined) was 0.633%.
To `CSCC(CCO)NC(=O)Nc1cc(Br)ccc1C` (centres undefined) belongs -3.57%; to `CC(C1CC1)N(C(=O)NCCCn1nc2ccccn2c1=O)C1CC1` (centres undefined), 2.18%; to `Cc1n[nH]c(C)c1C1CCCN1C(=O)NCC(=O)NC(C)(C)C` (centres undefined), -2.7%.
For the compound `CC(C)S(=O)(=O)NCC1CCCN(C(=O)c2ccc3c(c2)CCC3)C1` (centres undefined), the cytotoxicity at 70.5 h worked out at 1.31%.
The value for `CC(C)S(=O)(=O)NCC1CCCN(C(=O)c2ccc3c(c2)OCCO3)C1` (centres undefined) was -1.13%; that for `Cc1nsc(N2CCCN(c3nc(C4CC4)ns3)CC2)n1` was 1.36%; that for `Cc1nc2ccccn2c1CN(Cc1cccnc1)CC1CCCO1` (centres undefined) was 0.351%.
Turning to `O=C(CN(Cc1cccnc1)CC1CCCO1)Nc1ccc(F)cc1` (centres undefined), the cytotoxicity at 70.5 h is 2.4%.
To `Cc1n[nH]c(C)c1C1CCCN1C(=O)CNC(=O)C(C)(C)C` (centres undefined) belongs -0.174%; to `Cc1nc(C)n(CC2CCCN2CCCc2ccccc2)n1` (centres undefined), -6.68%.
As to `CC(C)n1cc(CN2CCCN(C(=O)c3nccnc3N)CC2)cn1`, the cytotoxicity at 70.5 h was determined as 7.08%.
The value for `Cn1ccc(NC(=O)Cc2cccc(F)c2)n1` was 14.1%; that for `NC(=O)c1ccc(CN2CCCC(O)C2)cc1` (centres undefined) was -3.47%; that for `NC(=O)c1ccc(CN2CCCC(N3CCCC3)C2)cc1` (centres undefined) was -7.14%.
Regarding `Cc1nn(CC(=O)N2CCCC2Cn2cccn2)c(C)c1Cl` (centres undefined), the cytotoxicity at 70.5 h was found to be 9.12%.
The value for `Cc1c(NC(=O)NCC(C)N2CCOCC2)cccc1OC(F)F` (centres undefined) was -0.748%; that for `O=C(CC1CN(Cc2ccccc2)CCO1)NC1CCCC1` (centres undefined) was 11.6%; that for `Cc1cc(C)n(C2CCCN(C(=O)c3cccc4[nH]ncc34)C2)n1` (centres undefined) was -4.99%.
To `Cc1nc(C)n(C2CCCN(C(=O)CCc3ccncc3)C2)n1` (centres undefined) belongs -0.318%; to `Cc1nc(C)n(C2CCCN(C(=O)CCCn3ccnc3)C2)n1` (centres undefined), 4.28%.
To `O=C(NCCOc1ncc(Cl)cc1Cl)c1ccncc1F` belongs 0.0766%; to `CC(Oc1ccccc1C(F)(F)F)C(=O)NCCC(=O)N(C)C` (centres undefined), 0.999%.
With `COc1c(C2CCCN2C(=O)c2ccc(Cl)o2)c(C)nn1C` (centres undefined), the cytotoxicity at 70.5 h was -5.88%.
To `CNc1cc(N2CCCC2CNCc2ccc(Cl)o2)ncn1` (centres undefined) belongs 8.16%.
`CCOC1CCC2(CCN(C(=O)c3csnn3)CC2)c2ccccc21` (centres undefined): the cytotoxicity at 70.5 h came to 36.5%.
To `COc1ncccc1CN1C[C@@H]2CN(c3ncccn3)C[C@@H]2C1` belongs 18.1%; to `CN1CC[C@]2(CN(CC3CC3)C[C@H]2c2ccccc2)C1=O`, 23.4%; to `COc1cc(N2CCC3(CC2)CN(C)C(=O)CO3)ncn1`, 16.1%.
The value for `CC(=O)N1CCC(c2nc3ccc(C)cn3n2)CC1` was -0.807%; that for `O=C(c1ccc[nH]1)N1CCc2nnc(Cn3cccc3)n2CC1` was -7.68%; that for `O=C(c1ccc[nH]1)N1CCc2nnc(Cn3cccn3)n2CC1` was -2.61%.
The value for `COc1cc(N2CCC3(CC2)CNC(=O)CO3)ncn1` was -8.43%.
Regarding `COC[C@@H]1CCC[C@]12CN(S(=O)(=O)c1cn(C)cn1)CCO2`, the cytotoxicity at 70.5 h was -6.65%.
`O=C(Nc1ccccc1)N1C[C@H]2C[C@H](C(=O)N3CCOCC3)[C@@H](C1)O2`: the cytotoxicity at 70.5 h is -6.84%.
To `CCOC[C@@H]1CCC[C@]12CN(S(=O)(=O)c1cn(C)cn1)CCO2` belongs -5.13%.
To `CS(=O)(=O)N1CCC(c2nc3ccc(-c4cccc(F)c4)cn3n2)CC1` belongs -5.73%; to `CN(C)C(=O)N1CC(C(=O)NCC2CC2)C2(CCOCC2)C1` (centres undefined), 3.79%.
To `CO[C@@H]1CO[C@@]2(CCCN(S(=O)(=O)c3ccccc3)C2)C1` belongs -14.8%.
On to `Cc1cccc(C(=O)N2Cc3ccccc3C3(CCN(C)CC3)C2)n1`, for which the cytotoxicity at 70.5 h worked out at 7.65%.
To `CN1CCCC2(CCN(C(=O)c3ccncc3)C2)C1` (centres undefined) belongs 7.77%.
To `CC(C)n1ccc(-c2cc(C(=O)N3CCCC3)c3ccccn23)n1` belongs 39.5%; to `CN1CCN(Cc2cn3c(n2)CN(Cc2cccnc2)CC3)CC1`, 19.4%.
As for `CC(=O)NCC(=O)N1CCC2(CC1)CN(c1cccnc1)C(=O)CO2`, the cytotoxicity at 70.5 h was -13.6%.
To `CC(=O)N1C[C@H](NC(=O)c2cscn2)[C@@H]2OCCC[C@@H]21` belongs -16.1%; to `COc1nn(C)c2c1CCCN(C(=O)c1cc[nH]n1)C2`, -13%.
The value for `CCN1CCC2(COCc3cnc(-c4cccnc4)nc32)C1` (centres undefined) was -13.9%; that for `CS(=O)(=O)NC[C@]12COC[C@H]1CN(C(=O)C1CCCCC1)C2` was -8.19%.
To `CCN1CCCn2c(nc(CNC(=O)c3ccsc3)cc2=O)C1` belongs -15.8%; to `Cn1cccc1C(=O)N1CC[C@H]2C[C@@H](c3ccncn3)O[C@@H]2C1`, -9.87%; to `CC1=N[C@@]2(CC[C@@H]3CN(S(=O)(=O)N(C)C)C[C@@H]32)C(=O)N1CC(C)C`, -7.17%.
With `Cc1nc(COC[C@@H]2CC[C@H]3[C@H](CCN3S(C)(=O)=O)O2)cs1`, the cytotoxicity at 70.5 h was -11.7%.
The value for `COCC(=O)N1CC[C@@H]2O[C@@H](COCc3csc(C)n3)CC[C@@H]21` was 4.53%.
For the compound `CC1=N[C@@]2(CC[C@@H]3CN(S(=O)(=O)CC(C)C)C[C@@H]32)C(=O)N1CC(C)C`, the cytotoxicity at 70.5 h was -5.23%.
The value for `Cc1ccc(CN2CCCC23CCN(S(=O)(=O)c2ccccc2)C3)o1` (centres undefined) was -7.71%.
As to `CS(=O)(=O)N[C@@H]1CCO[C@]2(CCN(C(=O)c3cnccn3)C2)C1`, the cytotoxicity at 70.5 h is -5.97%.
In the case of `CS(=O)(=O)NCc1nnc2n1CCN(CC1CC1)C2`, the cytotoxicity at 70.5 h is -6.05%.
The value for `O=C(NCc1cncc2c1CCN(C1CCOC1)C2)c1ccco1` (centres undefined) was -2.1%; that for `Cc1cccc(N2CCOCC3(C2)CN(c2cnn(C)c2)C(=O)CO3)n1` (centres undefined) was 16.9%.
For the compound `Cc1cccc(N2CCOCC3(C2)CN(c2ccoc2)C(=O)CO3)n1` (centres undefined), the cytotoxicity at 70.5 h was 6.55%.
To `O=C([C@H]1CCCO1)N1CCCC2(COCCN(c3ccccc3)C2)C1` (some centres undefined) belongs -10.4%.
The value for `O=C1NCC[C@]12CN(CC1CCOCC1)C[C@H]2c1ccccc1` was -7.01%; that for `CCN(CC)Cc1cc(=O)n2c(n1)CN(S(=O)(=O)C1CC1)CCC2` was -7.27%; that for `c1coc(CN2CCO[C@H]3[C@H](OCC4CC4)CC[C@@H]32)c1` was -10.8%.
To `COCC1c2c(cnn2C)CCN1C(=O)c1cc(C)on1` (centres undefined) belongs -0.669%; to `Cc1ccc(N2CC[C@@H]3[C@@H]2CCN3C(=O)Cc2ccccc2)nn1`, 5.36%; to `CCCC(=O)Nc1ccc2c(c1)C1(CCOCC1)CN2CCOC`, 18.8%.
Regarding `COCC(=O)N1CCC2(CC1)CC(COC)N(Cc1ccccn1)C2` (centres undefined), the cytotoxicity at 70.5 h was -4.33%.
The value for `CN1CCOCC2(CCCN(C(=O)c3cnccn3)C2)C1` (centres undefined) was 0.574%; that for `c1cnc(N2CCC3(COCc4cnc(-c5cccnc5)nc43)C2)nc1` (centres undefined) was 19.5%.
For `COCC(=O)NC1CC2(CCN(Cc3ccco3)CC2)c2ccccc21` (centres undefined), the cytotoxicity at 70.5 h is -12.8%.
Regarding `NC(=O)N1CC[C@H](O)[C@@H]1Cc1cccnc1`, the cytotoxicity at 70.5 h is -12.6%.
To `O=C(NCCc1cccs1)[C@H]1CO[C@H]2CCNC[C@H]2C1` belongs -15%; to `COCCN1CC[C@@H]2OC[C@H](C(=O)NCc3cccs3)C[C@@H]2C1`, 10.1%; to `CCC1=N[C@@]2(CC[C@@H]3CN(CC4CC4)C[C@@H]32)C(=O)N1C`, -14.1%.
To `CS(=O)(=O)CC(=O)N1C[C@H]2CCC[C@@]2(COCc2ccccn2)C1` belongs -19.8%; to `Cc1nnc(N2CC[C@H]3C[C@@H](C(=O)NC4CCCC4)O[C@H]3C2)s1`, 27%.
To `O=C(NCC1CC1)[C@H]1C[C@H]2OCC[C@H]2N(CCc2ccccc2)C1` belongs -1.31%.
As to `CC(C)NC(=O)N1CCc2ncc(CN3CCOCC3)n2CC1`, the cytotoxicity at 70.5 h was -1.87%.
To `Cn1ccc(C(=O)N2CCC[C@]3(C[C@@H](OCc4ccccn4)CO3)C2)n1` belongs -12.2%; to `CCC(=O)N1CC[C@H]2[C@H](C[C@@H](Cn3cccn3)N2c2nccs2)C1`, 8.28%; to `Cn1ccc(CN2CCCC23CCN(Cc2ccccc2F)CC3)n1`, -4.06%.
The value for `Cc1ccc(N2CC[C@@H]3[C@@H]2CCN3Cc2ccsc2)nn1` was -0.146%; that for `CC(C)N1CCC2(CCN(C(=O)c3cccnc3)CC2)C1` was -16.3%; that for `O=C(NCc1ccccn1)[C@H]1COC[C@H]2CN(Cc3ccoc3)C[C@H]21` was -2.29%.
To `O=C([C@H]1C[C@H]2OCC[C@H]2N(Cc2cccnc2)C1)N1CCCO1` belongs 0.465%.
As for `FC1(F)CCN(Cc2ccccn2)CC12CCN(c1cccnc1)C2` (centres undefined), the cytotoxicity at 70.5 h was 21.6%.
As for `c1cc(CNCC2OCCc3cn(CC4CCOCC4)nc32)ccn1` (centres undefined), the cytotoxicity at 70.5 h came out at 9.22%.
The value for `Cn1nc(COc2cccnc2)c2c1CCN(c1cnccn1)C2` was -14.9%.

Source of the values: ChEMBL document CHEMBL3507680, “University of Dundee, Gates Library screen for HepG2 cell viability”.
